Reference: patent US9688664B2, “Modulators of fatty acid amide hydrolase” (JANSSEN PHARMACEUTICA NV, priority 2010, dated 2017)
Entries after “also recorded” stand apart in the source; their conditions may differ. Where two headings read alike, the source gives them in different places.

Assays:
CYP2D6 = CYP2D6 (Homo sapiens (Human), UniProt P10635); experiment: Drug-Drug Interaction (DDI) assay, CYP inhibition in human liver microsomes
Description: Drug-Drug Interaction (DDI) Assay
The assay was set up and executed using a Biomek FXp robotic liquid handling workstation (Beckman Coulter Corp., Fullerton, Calif.), integrated with a Cytomat shaking incubator set at 37° C. […] A batch of human liver microsomes from 50 donors, pooled and characterized by BD Gentest, (Cat #457111, lot 01220, 20 mg/mL in 250 mM sucrose) was used. Each substrate was incubated at a protein concentration of 0.1, 0.15 or 0.2 mg/mL in a total incubation volume of 0.16 mL. The incubates were prepared in 100 mM potassium phosphate buffer (pH 7.4) supplemented with 5 mM magnesium chloride and 1 mM EDTA. Quinidine was used as a positive control inhibitor for CYP2D6. Quinidine was prepared as a working solution in organic solvent (primarily methanol, with DMSO and acetonitrile as secondary solvents) and was spiked into the microsomal suspension to yield the desired concentration level. The solution was then serially diluted with additional microsomal suspension to yield eight concentration levels. Final organic content was less than 0.07%. […] The final organic content was 0.2%. Incubations were performed in triplicate for each probe substrate.
The control inhibitor (quinidine) and marker substrate (dextromethorphan or bufuralol) were transferred to the incubation vessels (60 μL aliquots each). After a pre-incubation period at 37° C., the reactions were initiated by the addition of a 40 μL aliquot of NADPH regenerating system (BD Gentest). […] Incubation times were 12 minutes for both dextromethorphan and bufuralol. Reactions were terminated by the direct addition of acetonitrile (160 μL) to the incubation mix followed by transfer to a pooling plate containing additional acetonitrile (400 μL).
The incubation reactions were pooled by equal test compound or control inhibitor concentration, transferred to a Phenomenex Strata™ Impact protein precipitation filter plate containing acetonitrile and internal standards (100 μL of a mixture of the following deuterated compounds ranging in concentration from 0.5 to 2.8 μM: hydroxybufuralol-d9, dextrorphan-d3). The resulting filtrate was evaporated to dryness under a nitrogen flow, then reconstituted in 250 μL mobile phase (1:1 methanol:water, containing 0.1% acetic acid). Samples and standards were analyzed on a Sciex API4000 triple quadrupole mass spectrometer. The data were acquired in Analyst 1.4.1 (Applied Biosystems/MDS Sciex). For IC50 assays, the area ratios of the metabolite and internal standard chromatographic peaks were transferred to SigmaPlot (version 8.0) and plotted on a semi-log scale (percent residual activity vs. inhibitor concentration) to determine the IC50 value.

rat = experiment: Primary Observation (Irwin) Test in the rat; format: in vivo; conditions: for Hypothermia: at 15 to 60 min and at 180 min; for Decreased muscle tone (rats affected/tested): at 60 to 120 min
Description: Primary Observation (Irwin) Test in the Rat
The method, which detects the first toxic dose, the active dose-range and the main effects of a test substance on behavior and physiological function, follows that described by Irwin et al., Psychopharmacologia, 1968, 13, 222-257. […] All animals within a treatment group were observed simultaneously. Behavioral modifications, physiological and neurotoxicity symptoms, rectal temperature and pupil diameter were recorded according to a standardized observation grid derived from that of Irwin. The grid contains the following items: death, convulsions, tremor, Straub tail, altered activity, jumping, abnormal gait (rolling, tip-toe), motor uncoordination, altered abdominal muscle tone, loss of grasping, akinesia, catalepsy, loss of traction, loss of balance, fore-paw treading, writhes, piloerection, stereotypies (sniffing, chewing, head movements), head twitches, scratching, altered respiration, aggression, altered fear/startle, altered reactivity to touch, ptosis, exophthalmia, loss of righting reflex, loss of corneal reflex, analgesia, defecation/diarrhea, salivation, lacrimation, rectal temperature (hypothermia/hyperthermia) and pupil diameter (myosis/mydriasis). The test substances were evaluated at 2 doses (10 and 60 mg/kg), administered p.o. immediately before the test, and compared with a vehicle control group. Observations were performed 15, 30, 60, 120 and 180 minutes after administration of the test substances/vehicles and also 24 hours later.

rats [1] = conditions: cited from earlier work
rats [2] = conditions: cited from earlier work; remark: listed apart in the source
rats [3] = conditions: rat; cited from earlier work
FAAH [4] = biological target: T1, FAAH (Homo sapiens (Human), UniProt O00519); experiment: Assay Method 1: human FAAH assay (3H-anandamide hydrolysis in cell homogenate); format: biochemical; conditions: average of results
T1 sequence (O00519 whole entry): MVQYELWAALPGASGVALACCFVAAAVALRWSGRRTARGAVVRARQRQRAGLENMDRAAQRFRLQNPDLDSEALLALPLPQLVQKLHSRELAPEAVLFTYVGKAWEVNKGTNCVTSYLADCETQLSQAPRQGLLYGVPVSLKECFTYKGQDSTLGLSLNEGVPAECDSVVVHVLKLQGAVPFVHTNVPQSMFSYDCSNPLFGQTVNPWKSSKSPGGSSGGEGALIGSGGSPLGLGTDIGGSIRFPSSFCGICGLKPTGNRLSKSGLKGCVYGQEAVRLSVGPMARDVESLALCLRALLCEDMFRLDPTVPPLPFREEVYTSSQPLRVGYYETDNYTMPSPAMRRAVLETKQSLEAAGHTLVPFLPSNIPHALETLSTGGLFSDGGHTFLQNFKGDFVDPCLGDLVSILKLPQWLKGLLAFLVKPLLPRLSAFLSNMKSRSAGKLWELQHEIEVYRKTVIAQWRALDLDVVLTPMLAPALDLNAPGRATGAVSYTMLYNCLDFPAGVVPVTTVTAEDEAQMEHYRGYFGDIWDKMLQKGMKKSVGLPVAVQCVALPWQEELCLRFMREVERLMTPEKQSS
Description: A. Transfection of Cells with Human FAAH
(§1) A 10-cm tissue culture dish with a confluent monolayer of SK-N-MC cells was split 2 days (d) prior to transfection. Using sterile technique, the media was removed and the cells were detached from the dish by the addition of trypsin. One fifth of the cells were then placed onto a new 10-cm dish. Cells were grown in a 37° C. incubator with 5% CO2 in Minimal Essential Media Eagle with 10% Fetal Bovine Serum. After 2 d, cells were approximately 80% confluent. These cells were removed from the dish with trypsin and pelleted in a clinical centrifuge. The pellet was re-suspended in 400 μL complete media and transferred to an electroporation cuvette with a 0.4 cm gap between the electrodes. Supercoiled human FAAH cDNA (1 μg) was added to the cells and mixed. The voltage for the electroporation was set at 0.25 kV, and the capacitance was set at 960 μF. After electroporation, the cells were diluted into complete media (10 mL) and plated onto four 10-cm dishes. Because of the variability in the efficiency of electroporation, four different concentrations of cells were plated. The ratios used were 1:20, 1:10, and 1:5, with the remainder of the cells being added to the fourth dish. The cells were allowed to recover for 24 h before adding the selection media (complete media with 600 μg/mL G418). After 10 d, dishes were analyzed for surviving colonies of cells. […]

rat FAAH = rat FAAH (Rattus norvegicus (Rat), UniProt P97612); experiment: Assay Method 2: rat FAAH assay (3H-anandamide hydrolysis in cell homogenate); format: biochemical; conditions: average of results
Chain of rat FAAH (P97612 whole entry): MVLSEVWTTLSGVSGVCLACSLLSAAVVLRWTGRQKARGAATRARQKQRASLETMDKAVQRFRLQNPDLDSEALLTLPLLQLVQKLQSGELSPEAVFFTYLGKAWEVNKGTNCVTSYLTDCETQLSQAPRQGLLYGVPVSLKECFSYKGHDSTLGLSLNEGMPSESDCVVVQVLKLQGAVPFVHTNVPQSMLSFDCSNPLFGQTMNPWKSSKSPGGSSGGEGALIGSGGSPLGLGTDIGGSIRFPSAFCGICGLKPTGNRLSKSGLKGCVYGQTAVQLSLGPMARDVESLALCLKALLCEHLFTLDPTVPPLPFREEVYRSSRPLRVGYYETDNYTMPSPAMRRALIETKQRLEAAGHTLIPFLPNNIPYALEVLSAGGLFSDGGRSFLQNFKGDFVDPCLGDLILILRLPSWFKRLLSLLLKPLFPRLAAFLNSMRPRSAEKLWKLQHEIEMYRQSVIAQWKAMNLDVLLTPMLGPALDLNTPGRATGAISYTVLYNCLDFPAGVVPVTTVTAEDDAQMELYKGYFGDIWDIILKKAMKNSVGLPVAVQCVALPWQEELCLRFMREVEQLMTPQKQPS
Description: A. Transfection of Cells with Rat FAAH
as §1, with “rat” for “human”

[5] = in vivo; cited from earlier work
[6] = in vivo; cited from earlier work; remark: listed apart in the source
CREAE mice = conditions: cited from earlier work
FAAH [7] = biological target: T1, FAAH; conditions: cited from earlier work
rats [8] = conditions: cited from earlier work; remark: listed apart in the source
[9] = read-out: 2D6 Bufuralol IC50, substrate bufuralol
[10] = read-out: 2D6 Dextromethorphan IC50, substrate dextromethorphan

Chain of CYP2D6 (P10635 whole entry): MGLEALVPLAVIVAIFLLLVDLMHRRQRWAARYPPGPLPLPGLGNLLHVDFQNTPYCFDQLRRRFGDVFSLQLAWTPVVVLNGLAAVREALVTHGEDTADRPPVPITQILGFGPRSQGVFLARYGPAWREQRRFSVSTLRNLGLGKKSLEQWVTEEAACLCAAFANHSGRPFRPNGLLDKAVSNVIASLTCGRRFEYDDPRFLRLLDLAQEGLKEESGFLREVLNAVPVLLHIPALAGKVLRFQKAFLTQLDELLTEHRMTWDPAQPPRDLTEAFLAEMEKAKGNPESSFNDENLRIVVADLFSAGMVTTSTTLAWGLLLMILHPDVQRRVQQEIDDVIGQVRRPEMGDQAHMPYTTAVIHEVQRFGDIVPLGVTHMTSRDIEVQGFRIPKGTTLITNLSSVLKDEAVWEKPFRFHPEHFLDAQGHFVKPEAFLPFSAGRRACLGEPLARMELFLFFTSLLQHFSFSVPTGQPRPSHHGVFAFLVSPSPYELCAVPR

In the case of `O=C(Nc1cccnc1)N1CCN(Cc2ccc3c(c2)OC(F)(F)O3)CC1` [Comparator Compound], the IC50 (CYP2D6; [9]) is reported as 3200 nM, the IC50 (CYP2D6; [10]) is reported as 2000 nM and the “Increased reactivity to touch (rats affected/tested)” value (rat; 10 mg/kg p.o., at 15 min) is reported as “all rats tested”. The “Sedation (rats affected/tested)” value (rat; 60 mg/kg p.o., 15 to 120 min) was “all rats tested”, the Hypothermia (rat; 60 mg/kg p.o.) was “induced hypothermia” and the “Decreased muscle tone (rats affected/tested)” value (rat; 60 mg/kg p.o.) was “all rats”. The “Abnormal gait (rolling) (rats affected/tested)” value (rat; 60 mg/kg p.o., at 15 min) was “all rats tested”.
In the case of `NC(=O)c1cccc(-c2cccc(OC(=O)NC3CCCCC3)c2)c1` [URB-597], the “analgesic efficacy/activity, hot plate” value (rats [1]) is given as “analgesic efficacy”, the “efficacy in model of anxiety” value (rats [2]) is given as “efficacy” and the “analgesic efficacy, formalin test” value (rats [3]) is given as “analgesic efficacy”.
Molecule `O=C(Nc1cnccc1Cl)N1CCN(Cc2ccc3c(c2)OC(F)(F)O3)CC1` [Example 1] has an IC50 (FAAH [4]) of 75 nM, an IC50 (CYP2D6; [9]) of 24000 nM and an IC50 (CYP2D6; [10]) of 11000 nM. For the same molecule, the IC50 (rat FAAH) was 320 nM, the “Increased reactivity to touch (rats affected/tested)” value (rat; 10 mg/kg p.o., at 180 min) was “(1/4) at” and the “Abnormal gait (rats affected/tested)” value (rat; 60 mg/kg p.o.) was “(0/4)”. The “Hypothermia (rats affected/tested)” value (rat; 60 mg/kg p.o.) was “(0/4)”, the “Sedation (rats affected/tested)” value (rat; 60 mg/kg p.o.) was “(0/4)” and the “Increased abdominal muscle tone (rats affected/tested)” value (rat; 60 mg/kg p.o., at 60 min) was “(1/4) at 60 min”. For the same molecule, the “Increased reactivity to touch (rats affected/tested)” value (rat; 60 mg/kg p.o., at 60 min) was “(1/4) at 60 min” and the “Increased reactivity to touch (rats affected/tested)” value (rat; 60 mg/kg p.o., at 180 min) was “(1/4) at 180 min”.
For `O=C(Nc1ccccc1)N1CCN(c2nc(-c3ccccc3)ns2)CC1` [4-(3-Phenyl-[1,2,4]thiadiazol-5-yl)-piperazine-1-carboxylic acid phenylamide], the “efficacy in acute burn injury pain model” value [5] is listed as “efficacious” and the “efficacy in neuropathic pain model” value [6] is listed as “efficacious”.
For `CCCCCCCCCCCCCCCCS(=O)(=O)F` [AM374], the spasticity (CREAE mice) is given as “significantly reduce spasticity”.
In the case of `Cl.O=C(Nc1cnccc1Cl)N1CCN(Cc2ccc3c(c2)OC(F)(F)O3)CC1`, the “Increased reactivity to touch (rats affected/tested)” value (rat; 10 mg/kg p.o., at 180 min, hydrochloride) is reported as 1 out of 4, the “Sedative/depressant effects (sedation, motor signs and hypothermia)” value (rat; 60 mg/kg p.o.) is reported as “not observed” and the “Increased abdominal muscle tone (rats affected/tested)” value (rat; 60 mg/kg p.o., at 60 min) is reported as 1 out of 4. The “Increased reactivity to touch (rats affected/tested)” value (rat; 60 mg/kg p.o., at 60 min) was 1 out of the 4, the “Increased reactivity to touch (rats affected/tested)” value (rat; 60 mg/kg p.o., at 180 min) was 1 out of the 4 and the “General effects in the Irwin Test” value (rat; dose-range 10-60 mg/kg p.o.) was “weak and transient arousing effects in only one rat”. The Other signs (rat; up to 24 hours after administration, 10-60 mg/kg p.o.) was “no other signs were observed”.
In the case of `Cl.O=C(Nc1cccnc1)N1CCN(Cc2ccc3c(c2)OC(F)(F)O3)CC1` [Comparator Compound HCl], the “Increased reactivity to touch (rats affected/tested)” value (rat; 10 mg/kg p.o., at 15 min) is reported as “all 3 rats; also recorded: (3/3) at 15”, the “Sedative/depressant effects (sedation, motor signs and hypothermia)” value (rat; 60 mg/kg p.o.) is reported as “presence of sedative/depressant effects” and the “Sedation (rats affected/tested)” value (rat; 60 mg/kg p.o., 15 to 120 min) is reported as “all 3 rats; also recorded: (3/3) 15 to 120 min”. For the same molecule, the Hypothermia (rat; 60 mg/kg p.o.) was “induced hypothermia; also recorded: slight induction at 15”, the “Decreased muscle tone (rats affected/tested)” value (rat; 60 mg/kg p.o.) was “all 3 rats; also recorded: (3/3) at 60 to 120” and the “Abnormal gait (rolling) (rats affected/tested)” value (rat; 60 mg/kg p.o., at 15 min) was “all 3 rats; also recorded: (3/3) at 15 min”.
In the case of `O=C(CCCCCCc1ccccc1)c1ncc(-c2ccccn2)o1` [OL-135], the “analgesic efficacy/activity, hot plate” value (rats [1]) is listed as “analgesic activity”, the FAAH inhibition (FAAH [7]) is listed as “potent inhibitor” and the “analgesic activity, tail immersion” value (rats [8]) is listed as “analgesic activity”.
